One series deals with T1, PDE5 Cat (Homo sapiens, UniProt O76074).
T1 construct: using full length PDE5 versus the catalytic domain used in our assays; Scottish Biomedical (contract laboratory)
Nature of the series: IMAP PDE activity assay (Scottish Biomedical). As to conditions: PDE5 Cat (catalytic domain). The format is biochemical.

A further series addresses PDE10A1 (cAMP) (Homo sapiens, UniProt Q9Y233). Description: IMAP PDE activity assay (Scottish Biomedical). The format is biochemical. Particulars: * Extrapolated value. On the procedure:
(§1) Studies were conducted at Scottish Biomedical (Scotland, UK)
(§2) Activity against recombinant PDEs (Table 1) was evaluated using the IMAP technology, which is based on high affinity binding of phosphate by immobilized metal coordination complexes on nanoparticles. The binding reagent complexes with phosphate groups on nucleotide monophosphate generated from cyclic nucleotides (cAMP/cGMP) through PDE activity. With fluorescence polarization detection, binding causes a change in the rate of the molecular motion of the phosphate bearing molecule, and results in an increase in the fluorescence polarization value observed for the fluorescent label attached to the substrate.

In another series the target is PDE11A1 (cAMP) (Homo sapiens, UniProt Q9HCR9). Nature of the series: IMAP PDE activity assay (Scottish Biomedical). Particulars: * Extrapolated value. Type of series: biochemical. On the procedure:
as §1, §2

The target of a further series is T2, PDE1A3 (cAMP) (Homo sapiens, UniProt P54750).
T2 construct: Scottish Biomedical (contract laboratory)
T2 sequence (P54750 whole entry, species assumed): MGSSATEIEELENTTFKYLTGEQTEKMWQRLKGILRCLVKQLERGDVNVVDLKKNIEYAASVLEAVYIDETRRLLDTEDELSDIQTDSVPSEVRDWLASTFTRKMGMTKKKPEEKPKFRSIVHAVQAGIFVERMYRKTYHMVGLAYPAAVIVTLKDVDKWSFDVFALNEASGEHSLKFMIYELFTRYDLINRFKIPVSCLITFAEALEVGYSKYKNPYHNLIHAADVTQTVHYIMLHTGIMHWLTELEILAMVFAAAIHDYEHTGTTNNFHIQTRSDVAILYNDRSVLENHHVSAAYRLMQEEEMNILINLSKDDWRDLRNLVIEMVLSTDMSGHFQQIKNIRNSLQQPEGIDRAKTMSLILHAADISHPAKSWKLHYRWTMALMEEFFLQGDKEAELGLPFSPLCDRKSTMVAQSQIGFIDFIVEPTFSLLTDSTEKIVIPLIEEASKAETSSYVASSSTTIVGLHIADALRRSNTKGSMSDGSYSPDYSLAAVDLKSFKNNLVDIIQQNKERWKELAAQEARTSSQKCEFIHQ
Nature of the series: IMAP PDE activity assay (Scottish Biomedical). The format is biochemical. As to conditions: recombinant PDE1A3 (cAMP). The procedure:
as §1, §2

For a further series, the target named is T3, PDE2A3 (Homo sapiens, UniProt O00408).
T3 construct: Scottish Biomedical (contract laboratory)
Description: IMAP PDE activity assay (Scottish Biomedical). Type of series: biochemical. Particulars: recombinant PDE2A3. On the procedure:
as §1, §2

For another series, the system named is PDE3 Cat. Nature of the series: IMAP PDE activity assay (Scottish Biomedical). Type of series: biochemical. As to conditions: * Extrapolated value. The procedure:
as §1, §2

The subject of another series is PDE4 Cat. Description: IMAP PDE activity assay (Scottish Biomedical). The format is biochemical. The procedure:
as §1, §2

The target of the next series is T4, PDE6AB (Homo sapiens, UniProt P16499+P35913).
T4 construct: Scottish Biomedical (contract laboratory)
T4 sequence (P16499 whole entry): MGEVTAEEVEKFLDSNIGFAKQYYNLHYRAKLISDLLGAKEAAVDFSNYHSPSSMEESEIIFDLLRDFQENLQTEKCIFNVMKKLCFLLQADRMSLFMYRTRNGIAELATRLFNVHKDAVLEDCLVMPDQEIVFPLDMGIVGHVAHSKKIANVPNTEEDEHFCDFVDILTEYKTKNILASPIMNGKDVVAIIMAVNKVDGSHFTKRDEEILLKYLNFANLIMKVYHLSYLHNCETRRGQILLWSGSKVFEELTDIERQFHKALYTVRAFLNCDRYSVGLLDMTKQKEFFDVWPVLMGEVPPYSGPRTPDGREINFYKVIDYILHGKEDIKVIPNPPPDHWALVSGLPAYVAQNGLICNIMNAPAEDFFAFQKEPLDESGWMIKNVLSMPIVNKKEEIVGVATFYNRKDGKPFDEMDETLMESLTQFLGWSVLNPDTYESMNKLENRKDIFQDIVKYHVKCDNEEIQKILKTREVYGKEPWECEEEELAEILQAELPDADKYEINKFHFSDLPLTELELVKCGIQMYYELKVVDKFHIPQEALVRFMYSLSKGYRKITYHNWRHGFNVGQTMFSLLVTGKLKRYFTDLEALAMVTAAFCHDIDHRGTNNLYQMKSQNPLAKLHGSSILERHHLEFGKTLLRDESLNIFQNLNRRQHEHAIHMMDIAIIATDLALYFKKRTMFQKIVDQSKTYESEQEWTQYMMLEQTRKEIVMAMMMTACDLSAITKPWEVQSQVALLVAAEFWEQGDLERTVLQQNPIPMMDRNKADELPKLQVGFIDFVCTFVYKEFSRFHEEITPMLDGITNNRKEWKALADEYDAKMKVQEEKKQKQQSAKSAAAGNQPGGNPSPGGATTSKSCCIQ
T4 sequence (P35913 whole entry): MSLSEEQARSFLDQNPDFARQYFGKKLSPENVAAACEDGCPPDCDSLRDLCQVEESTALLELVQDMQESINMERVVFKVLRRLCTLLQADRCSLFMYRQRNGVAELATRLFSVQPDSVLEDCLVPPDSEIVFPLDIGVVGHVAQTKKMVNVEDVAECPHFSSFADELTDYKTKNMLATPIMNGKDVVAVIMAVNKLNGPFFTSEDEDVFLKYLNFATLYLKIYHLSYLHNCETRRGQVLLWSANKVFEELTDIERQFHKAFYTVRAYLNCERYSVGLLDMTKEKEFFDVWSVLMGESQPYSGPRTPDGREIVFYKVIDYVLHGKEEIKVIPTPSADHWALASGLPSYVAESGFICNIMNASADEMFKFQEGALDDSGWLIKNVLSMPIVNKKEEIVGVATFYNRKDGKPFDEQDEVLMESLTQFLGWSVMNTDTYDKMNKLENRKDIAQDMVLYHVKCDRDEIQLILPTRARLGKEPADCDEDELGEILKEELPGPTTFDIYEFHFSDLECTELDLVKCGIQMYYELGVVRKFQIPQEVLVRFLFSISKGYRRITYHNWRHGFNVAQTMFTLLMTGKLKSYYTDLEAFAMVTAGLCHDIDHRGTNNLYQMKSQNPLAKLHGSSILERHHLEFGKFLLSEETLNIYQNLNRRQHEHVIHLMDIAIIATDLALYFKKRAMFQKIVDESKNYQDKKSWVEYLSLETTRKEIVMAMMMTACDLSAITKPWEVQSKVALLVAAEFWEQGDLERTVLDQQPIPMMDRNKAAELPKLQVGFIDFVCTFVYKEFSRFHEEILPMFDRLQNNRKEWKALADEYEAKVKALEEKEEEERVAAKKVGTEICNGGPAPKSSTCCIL
Description: IMAP PDE activity assay (Scottish Biomedical). Type of series: biochemical. As to conditions: NI, no inhibition noted at concentrations tested (up to 10 µM at Cerep and up to 100 µM at Scottish Biomedical). On the procedure: as §1, §2

Another series deals with T5, PDE7A1 (Homo sapiens, UniProt Q13946).
T5 construct: Scottish Biomedical (contract laboratory)
T5 sequence (Q13946 whole entry, species assumed): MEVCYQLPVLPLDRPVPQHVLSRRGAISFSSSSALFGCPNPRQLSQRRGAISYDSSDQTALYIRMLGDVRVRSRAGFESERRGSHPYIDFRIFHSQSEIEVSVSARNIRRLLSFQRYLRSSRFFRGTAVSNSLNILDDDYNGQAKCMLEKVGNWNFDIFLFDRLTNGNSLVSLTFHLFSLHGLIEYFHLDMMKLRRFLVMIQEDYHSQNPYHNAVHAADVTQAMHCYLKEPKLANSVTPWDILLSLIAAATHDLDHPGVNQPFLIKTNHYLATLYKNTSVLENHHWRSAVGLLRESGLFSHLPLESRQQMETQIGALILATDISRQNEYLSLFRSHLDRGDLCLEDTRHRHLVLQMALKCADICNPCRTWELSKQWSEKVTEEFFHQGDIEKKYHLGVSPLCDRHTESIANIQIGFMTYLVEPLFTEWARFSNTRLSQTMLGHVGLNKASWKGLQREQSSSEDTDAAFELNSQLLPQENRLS
Description: IMAP PDE activity assay (Scottish Biomedical). Type of series: biochemical. The procedure: as §1, §2

The target in a further series is T6, PDE8A1 (Homo sapiens, UniProt O60658).
T6 construct: Scottish Biomedical (contract laboratory)
T6 sequence (O60658 whole entry, species assumed): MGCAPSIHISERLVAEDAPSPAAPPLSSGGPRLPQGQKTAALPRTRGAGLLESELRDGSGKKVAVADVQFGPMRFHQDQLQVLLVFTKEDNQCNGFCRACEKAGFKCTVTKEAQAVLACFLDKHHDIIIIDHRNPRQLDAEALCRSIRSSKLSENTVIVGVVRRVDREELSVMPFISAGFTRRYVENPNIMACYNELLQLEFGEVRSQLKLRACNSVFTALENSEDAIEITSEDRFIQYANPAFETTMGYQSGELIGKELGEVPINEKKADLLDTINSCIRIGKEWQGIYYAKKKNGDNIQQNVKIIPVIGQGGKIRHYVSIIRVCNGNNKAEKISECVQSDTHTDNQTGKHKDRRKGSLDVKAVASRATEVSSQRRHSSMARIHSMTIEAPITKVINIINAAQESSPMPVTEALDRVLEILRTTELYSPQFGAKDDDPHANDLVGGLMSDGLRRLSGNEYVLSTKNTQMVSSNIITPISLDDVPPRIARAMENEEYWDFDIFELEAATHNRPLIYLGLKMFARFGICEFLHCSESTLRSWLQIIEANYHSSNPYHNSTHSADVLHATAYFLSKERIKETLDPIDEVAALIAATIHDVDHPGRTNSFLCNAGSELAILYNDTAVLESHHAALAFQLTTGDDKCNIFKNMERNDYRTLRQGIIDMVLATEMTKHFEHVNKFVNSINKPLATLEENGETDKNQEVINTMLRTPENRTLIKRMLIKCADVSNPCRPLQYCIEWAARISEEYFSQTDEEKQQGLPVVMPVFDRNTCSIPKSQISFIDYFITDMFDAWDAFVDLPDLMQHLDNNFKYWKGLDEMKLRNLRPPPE
Description: IMAP PDE activity assay (Scottish Biomedical). Type of series: biochemical. Particulars: NI, no inhibition noted at concentrations tested (up to 10 µM at Cerep and up to 100 µM at Scottish Biomedical). On the procedure: as §1, §2

The target in the next series is PDE9A2 (Homo sapiens, UniProt O76083). Nature of the series: IMAP PDE activity assay (Scottish Biomedical). Particulars: * Extrapolated value. Type of series: biochemical. On the procedure: as §1, §2
Chain of PDE9A2 (O76083 whole entry): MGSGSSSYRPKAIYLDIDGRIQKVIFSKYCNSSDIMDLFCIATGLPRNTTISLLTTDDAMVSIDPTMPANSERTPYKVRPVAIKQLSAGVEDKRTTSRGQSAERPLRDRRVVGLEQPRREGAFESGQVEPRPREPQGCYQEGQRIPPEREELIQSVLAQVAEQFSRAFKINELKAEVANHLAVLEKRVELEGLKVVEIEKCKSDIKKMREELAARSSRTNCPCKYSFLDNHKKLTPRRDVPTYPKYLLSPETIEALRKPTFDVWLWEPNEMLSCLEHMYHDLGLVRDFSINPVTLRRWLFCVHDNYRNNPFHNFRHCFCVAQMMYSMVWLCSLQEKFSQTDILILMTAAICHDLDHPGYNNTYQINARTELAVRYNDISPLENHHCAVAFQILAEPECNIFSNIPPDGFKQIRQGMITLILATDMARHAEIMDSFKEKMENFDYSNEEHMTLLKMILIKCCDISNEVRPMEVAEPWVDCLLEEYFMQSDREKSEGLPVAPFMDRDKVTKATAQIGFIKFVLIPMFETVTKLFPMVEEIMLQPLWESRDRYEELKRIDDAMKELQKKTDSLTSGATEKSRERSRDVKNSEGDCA
Series [1] is described as follows: Microdialysis PK: SCH-51866 in striatal extracellular dialysate. Type of series: in vivo, mouse. As to conditions: single oral dose, male R6/2, 7-8 weeks. The procedure: Microdialysis PK/PD studies were conducted at Brains Online, Inc. (San Francisco, CA, USA) Male R6/2 (CBA/C57Bl/6 strain, CAG 120) mice aged 7-8 weeks (20 - 30 g; The Jackson Laboratory, USA) were used for the experiments. The animals were group housed in plastic cages (3-4 animals / cage) and had access to food and water ad libitum. Experiments were conducted in accordance with the declarations of Helsinki and were approved by the Institutional Animal Care and Use Committee of the University of California, San-Francisco. […] Mice were anesthetized using isoflurane (2%, 800 mL/min O2). Bupivacain/epinephrine was used for local anesthesia. Carprophen was used peri-/post-operative as analgesia. The animals were placed in a stereotaxic frame (Kopf instruments, USA), and microdialysis probes were inserted into the striatum. […] After surgery animals were kept individually in cages and provided food and water ad libitum. Animals were fasted the night before the experiment. Experiments were performed one day after surgery. […] Treatment effects were evaluated among different drug concentrations and also compared to baseline, using two-way ANOVA for repeated measurements followed by Student-Newman-Keuls post-hoc test. […] Pharmacodynamic parameters were calculated using Phoenix™ WinNonlin® Pro Node initial (Pharsight Corporation, Mountain View, CA, USA).

For a further series, the system named is R6/2 mice. Description: Lower dose behavioral efficacy study in R6/2 mice (Psychogenic). Type of series: in vivo, mouse. As to conditions: lower doses, 0.3 – 3 mg/kg.
A further series relates to aggregated HTT. Nature of the series: Seprion ligand based ELISA of aggregate load. The format is in vivo, mouse. As to conditions: chronic administration; 13 weeks of age; lower dose group study. An excerpt: Aggregates were captured in Seprion ligand coated plates (Microsens) and detected using the S830 sheep polyclonal or MW8 mouse monoclonal antibodies as described.

The subject of another series is PDE2. Details: method as in PMID 9216839, PMID 17697115, PMID 10618442, PMID 8961086, PMID 7581878. Particulars: ref [12], [23], [25], [27], [28], read-out: previously reported potencies; cited from earlier work.
On the set-up of series [2]: method as in PMID 8961086. Particulars: rats; ref [27]; read-out: plasma Cmax exposure; cited from earlier work.

“Also recorded” adds a separate entry of the source.

Chain of PDE10A1 (cAMP) (Q9Y233 267-1055): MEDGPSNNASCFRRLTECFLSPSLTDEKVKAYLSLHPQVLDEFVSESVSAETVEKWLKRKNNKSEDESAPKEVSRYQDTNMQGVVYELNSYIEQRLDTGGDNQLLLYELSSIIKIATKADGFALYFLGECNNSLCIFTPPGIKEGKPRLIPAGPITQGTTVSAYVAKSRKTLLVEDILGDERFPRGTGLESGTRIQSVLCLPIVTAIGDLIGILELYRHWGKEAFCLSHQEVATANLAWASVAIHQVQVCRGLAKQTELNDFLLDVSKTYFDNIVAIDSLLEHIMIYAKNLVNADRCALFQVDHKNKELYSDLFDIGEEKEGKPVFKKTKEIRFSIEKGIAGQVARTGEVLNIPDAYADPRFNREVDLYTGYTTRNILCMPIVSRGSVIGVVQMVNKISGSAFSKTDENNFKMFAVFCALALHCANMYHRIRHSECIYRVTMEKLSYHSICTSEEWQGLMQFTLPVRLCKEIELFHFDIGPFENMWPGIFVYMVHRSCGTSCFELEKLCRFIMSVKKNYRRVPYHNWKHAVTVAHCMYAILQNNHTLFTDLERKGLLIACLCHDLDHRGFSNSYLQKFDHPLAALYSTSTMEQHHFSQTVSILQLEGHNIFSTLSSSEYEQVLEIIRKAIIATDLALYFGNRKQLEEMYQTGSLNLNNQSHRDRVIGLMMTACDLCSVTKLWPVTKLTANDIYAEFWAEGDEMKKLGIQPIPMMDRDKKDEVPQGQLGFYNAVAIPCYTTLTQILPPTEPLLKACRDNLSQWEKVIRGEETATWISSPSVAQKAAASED

As for `CN1C(=O)c2nc(Cc3ccc(C(F)(F)F)cc3)[nH]c2N2C1=N[C@H]1CCC[C@H]12` [SCH-51866, (+)-cis-5,6a,7,8,9,9a-hexahydro-2-[4-[trifluro-methyl]phenylmethyl]-5-methyl-cylopent[4,5]imidazo [2,1-b]purin-4(3H)one], the IC50 on PDE5 Cat was 2840 nM; on PDE10A1 (cAMP), 16 µM; at PDE11A1 (cAMP), 21.9 µM; at PDE1A3 (cAMP), 70 nM; at PDE2A3, 1320 nM; with PDE3 Cat, 17.3 µM. In addition, the IC50 was more than 100 µM with PDE4 Cat; more than 100 µM on PDE6AB; more than 100 µM against PDE7A1; more than 100 µM on PDE8A1; 51.3 µM at PDE9A2; 2000 nM in the series on PDE2. Besides, the “SCH-51866 in brain extracellular fluid” value in series [1] is “dose-dependent accumulation”. For the same compound, the “effect on disease progression / endpoints (rotarod, grip strength, open field, survival)” value in the series on R6/2 mice was “no improvement noted in any endpoint; also recorded: no effect in ameliorating disease progression”. For the same compound, the “aggregate load in the cortex and hippocampus (Seprion ligand ELISA)” value in the series on aggregated HTT was “no effect”. Besides, in [2], the Cmax (in general, the highest concentration seen after dosing) is 2.37 to 3.8 µM.

Source of the values: article PMC3923778 (PLoS Currents, 2014).
